Literature values as cited in patent US7977431B2, “Dithiocarbamic esters” (LANXESS Deutschland GmbH, priority 2002, dated 2011).

Details: for pKa value: parent form Z-H of substituent Z; for pKa value e Z-H: pKa of the protonated substituent Z of the regulator, not of the regulator itself

Molecule | pKa value | pKa value e Z-H
O=C1CCCCCN1 [2-azepanone] | 16.6 | 
O=C1CCCCCCN1 [2-azocanone] | 16.6 | 
O=C1CCCCN1 [2-piperidinone] | 16.6 | 
CC(=O)Nc1ccccc1 [N-phenylacetamide] | 16.6 | 
C/C(Cl)=C/CSC(=S)n1cccc1 [Regulator compound (1), 3-chloro-2-butenyl 1H-pyrrole-1-carbodithioate] |  | 17.0
C/C(Cl)=C/CSC(=S)n1ccnc1 [Regulator compound (2), 3-chloro-2-butenyl 1H-imidazole-1-carbodithioate] |  | 14.5
CCN(C(=S)SCc1ccccc1)c1ccccc1 [Regulator compound (3), Benzyl ethyl-(phenyl)dithio-carbamate, reference compound] |  | 5.1
CCN(C(=S)SC(C)C(=O)OC)c1ccccc1 (stereo not shown) [Regulator compound (4), Methyl 2-({[ethyl-(phenyl)amino]-carbonothioyl}-sulphanyl)-propanoate, reference compound] |  | 5.1
CCN(C(=S)SC(C(=O)OC)c1ccccc1)c1ccccc1 (stereo not shown) [Regulator compound (5), Methyl ({[ethyl-(phenyl)amino]-carbonothioyl}-sulphanyl)(phenyl) acetate, reference compound] |  | 5.1
CCN(C(=S)SC/C=C(/C)Cl)c1ccccc1 [Regulator compound (6), reference compound] |  | 5.1
c1ccc2c(c1)[nH]c1ccccc12 [carbazole] | 17 | 
c1cn[nH]c1 [pyrazole] | 14.0 | 
N-(methyl/ethyl)acetamide | 16.6 | 
